How the values were obtained:
[1] = system: HepG2; settings: human, hepg2, 48 h
[2] = system: A549; settings: human, a549, 48 h
[3] = mouse, balb/3t3 clone a31, 48 h
[4] = biological target: T1, Glycine N-methyltransferase (Homo sapiens, UniProt Q14749); test: Inhibition of N-terminal His-tagged human recombinant Glycine-N-methyltransferase (1 to 295 residues) expressed in Escherichia coli using glycine and SAM as substrate incubated for 30 mins by HTRF assay
T1 sequence (Q14749 whole entry): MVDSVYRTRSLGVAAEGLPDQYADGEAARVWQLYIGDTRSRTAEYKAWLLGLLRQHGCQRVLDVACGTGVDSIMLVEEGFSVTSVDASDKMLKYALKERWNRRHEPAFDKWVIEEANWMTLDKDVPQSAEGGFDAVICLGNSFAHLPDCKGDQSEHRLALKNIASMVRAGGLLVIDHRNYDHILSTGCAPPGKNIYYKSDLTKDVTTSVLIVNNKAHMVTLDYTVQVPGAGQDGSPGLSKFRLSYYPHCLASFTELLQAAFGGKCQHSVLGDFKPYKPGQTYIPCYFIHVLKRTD

Row | SMILES | CC50 [1] | CC50 [2] | CC50 [3] | IC50 ([4]; read-out: IC50) | IC50 [4]
1 | Nc1ncnc2c1ncn2[C@@H]1O[C@H](CN(CCCC(=O)O)CCc2ccccc2)[C@@H](O)[C@H]1O | > 100 µM | > 200 µM | > 200 µM | 2.7 µM | –
2 | Nc1ncnc2c1ncn2[C@@H]1O[C@H](CSCc2ccc3ccccc3c2)[C@@H](O)[C@H]1O | > 100 µM | > 200 µM | > 200 µM | 0.26 µM | –
3 | Nc1ncnc2c1ncn2[C@@H]1O[C@H](C(=O)N2CCN(CC(=O)O)CC2)[C@@H](O)[C@H]1O | – | – | – | 240 µM | –
4 | Nc1ncnc2c1ncn2[C@@H]1O[C@H](CSCCc2c[nH]nn2)[C@@H](O)[C@H]1O | > 100 µM | > 200 µM | > 200 µM | 0.39 µM | –
5 | Nc1ncnc2c1ncn2[C@@H]1O[C@H](C[C@@H](N)CC[C@H](N)C(=O)O)[C@@H](O)[C@H]1O [SINEFUNGIN] | > 100 µM | 72.9 µM | 99.2 µM | – | –
6 | Nc1ncnc2c1ncn2[C@@H]1O[C@H](C(=O)Nc2cccc(C(=O)O)c2)[C@@H](O)[C@H]1O | > 100 µM | > 200 µM | > 200 µM | 2.2 µM | –
7 | Nc1ncnc2c1ncn2[C@@H]1O[C@H](CNCCc2ccccc2)[C@@H](O)[C@H]1O | – | – | – | 207 µM | –
8 | Nc1ncnc2c1ncn2[C@@H]1O[C@H](CSCc2cccc(C(=O)O)c2)[C@@H](O)[C@H]1O | > 100 µM | > 200 µM | > 200 µM | 0.0086 µM | –
9 | Nc1ncnc2c1ncn2[C@@H]1O[C@H](CSc2cccc(C(=O)O)c2)[C@@H](O)[C@H]1O | > 100 µM | > 200 µM | > 200 µM | 0.15 µM | –
10 | Nc1ncnc2c1ncn2[C@@H]1O[C@H](CSCc2cc(O)[nH]n2)[C@@H](O)[C@H]1O | > 100 µM | > 200 µM | > 200 µM | 0.64 µM | –
11 | Nc1ncnc2c1ncn2[C@@H]1O[C@H](CNCc2cc[nH]n2)[C@@H](O)[C@H]1O | – | – | – | – | Not Active

— ChEMBL document CHEMBL4834465, “Potent SARS-CoV-2 mRNA Cap Methyltransferase Inhibitors by Bioisosteric Replacement of Methionine in SAM Cosubstrate” (ACS Med Chem Lett, 2021)
